Results from PubChem BioAssay AID743396 (Broad Institute, 2014).
Active and inactive are the calls of the source.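 How the source made its calls: active means fitted curve reaches a 40% rise in fluorescent cells at or below the top valid dose; inactive means opposite-direction effect, or the rest.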

Experiment: compound fluorescence in GFP channel, mTEFS cells – imaging, mTEFS fibroblasts, cherry-pick, artefact control for X-chromosome reactivation project, dose response (AID 743396);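 further: raw share of Hoechst-counted cells scored GFP positive without control normalization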
Conditions: mTEFS fibroblasts autofluorescence, GFP-channel imaging, 3 days; at 19.5 µM (top of the series); cells pretreated with 5-aza-dC
With `O=C(N/N=C/c1ccc([N+](=O)[O-])o1)c1cc2ccccc2o1` the % fluorescent cells increase was 1.73% (inactive).
For `Cc1c(Nc2cc(Cl)c3nonc3c2[N+](=O)[O-])c(=O)n(-c2ccccc2)n1C`, the % fluorescent cells increase was -0.007% (inactive).
With `O=C(/C=C/Sc1ccc(C(F)(F)F)cn1)c1ccccc1` the % fluorescent cells increase was -0.007% (inactive).
For `CCc1ccc(NS(=O)(=O)c2cccc3nonc23)cc1`, the % fluorescent cells increase was 5.79% (inactive).
In the case of `COc1ccc(NC(=O)Nc2ccc3c(c2)CC(=O)N([C@H](C)CO)C[C@H](C)[C@@H](CN(C)S(=O)(=O)c2ccc(F)cc2)O3)cc1`, the % fluorescent cells increase is reported as 2.89% (inactive).
For `Cc1cc(NC(=O)c2c(-c3c(Cl)cccc3Cl)noc2C)n(C)n1`, the % fluorescent cells increase was 0.012% (inactive).
For `Cc1c(/C=N\NC(=O)c2cc3ccccc3o2)c2ccccc2n1C`, the % fluorescent cells increase was 0% (inactive).
For `CCc1nc(C)cn1S(=O)(=O)c1ccc([N+](=O)[O-])cc1`, the % fluorescent cells increase was 0.011% (inactive).
In the case of `COc1ccc(Nc2nc(N)c(C(=O)c3ccc(F)cc3)s2)cc1`, the % fluorescent cells increase is reported as 0% (inactive).
For `COc1ccc(C(=O)N/N=C/c2cc(Br)ccc2O)cc1OC`, the % fluorescent cells increase was 4.96% (inactive).
With `CCOC(=O)Cc1csc(NC(=O)Nc2ccc(F)cc2)n1` the % fluorescent cells increase was 0% (inactive).
In the case of `COc1cc(C(=O)NC(=S)Nc2cccc3nc(C)ccc23)cc(OC)c1OC`, the % fluorescent cells increase is reported as 0.128% (inactive).
In the case of `CN(C)CC(=O)N1CC2(C1)[C@@H](c1ccccc1)[C@H](CO)N2C(=O)C1CC1`, the % fluorescent cells increase is reported as -0.147% (inactive).
With `CS(=O)(=O)c1ccc(S(=O)CC(=O)OCc2ccccc2)c([N+](=O)[O-])c1` (stereo not given) the % fluorescent cells increase was 0% (inactive).
For `COc1ccc(C(=O)CN2Cc3ccccc3C2=N)cc1`, the % fluorescent cells increase was 0.041% (inactive).
With `O=C(NC1=NN(c2ccccc2)CC1)Nc1ccccc1F` the % fluorescent cells increase was -0.002% (inactive).
In the case of `F[B-](F)(F)c1cnc2ccccc2c1`, the % fluorescent cells increase is reported as 0.137% (inactive).
For `S=C(SSC(=S)N1CCOCC1)N1CCOCC1`, the % fluorescent cells increase was 0% (inactive).
In the case of `COc1ccc(S(=O)(=O)N(C)C[C@H]2OCCCC[C@@H](C)Oc3ccc(NC(=O)NC(C)C)cc3C(=O)N([C@@H](C)CO)C[C@H]2C)cc1`, the % fluorescent cells increase is reported as 0.53% (inactive).
For `COc1ccc(OC)c(/C=C/c2ccc3cccc(O)c3n2)c1`, the % fluorescent cells increase was -0.004% (inactive).
With `COC(=O)c1cc(C(=O)N2CCN(c3ccccc3OC)CC2)cc([N+](=O)[O-])c1` the % fluorescent cells increase was 0% (inactive).
In the case of `C[C@@H]1CN(C)C(=O)Cc2cc(N(C)C)ccc2O[C@@H]1CN(C)S(C)(=O)=O`, the % fluorescent cells increase is reported as 0.125% (inactive).
For `COc1ccc(-c2nn(-c3ccccc3)cc2C(=O)NC(=S)Nc2cc(Cl)ccc2Cl)cc1`, the % fluorescent cells increase was 2.13% (inactive).
For `S=C(NCc1ccco1)Nc1cccc(Cl)c1Cl`, the % fluorescent cells increase was 0.083% (inactive).
With `COC(=O)c1sc(-c2ccc(C(C)(C)C)cc2)cc1NC(=O)c1ccccc1C(=O)O` the % fluorescent cells increase was 0.032% (inactive).
In the case of `O=C1c2cccc3c([N+](=O)[O-])ccc(c23)C(=O)N1Cc1cccnc1`, the % fluorescent cells increase is reported as 11.8% (inactive).
For `O=[N+]([O-])c1ccc(Sc2nnnn2-c2ccccc2)nc1`, the % fluorescent cells increase was -0.007% (inactive).
With `CC(=O)c1ccc(NC(=O)COC(=O)CCc2ccc(S(=O)(=O)N3CCOCC3)cc2)cc1` the % fluorescent cells increase was 0.108% (inactive).
For `CN(C)CCN(Cc1ccc(Cl)cc1)c1ccccn1`, the % fluorescent cells increase was -0.004% (inactive).
For `Cc1cc(=O)[nH]c(N/N=C/c2cc(C)n(-c3ccccc3)c2C)n1`, the % fluorescent cells increase was 0% (inactive).
For `COCCNC(=S)N(Cc1cccnc1)Cc1ccc(OC)c(OC)c1`, the % fluorescent cells increase was 1.33% (inactive).
In the case of `Cc1nn(-c2ccccc2)c2ncc(C(=O)c3cc(Cl)ccc3O)cc12`, the % fluorescent cells increase is reported as 0% (inactive).
In the case of `CC(=NNC(=S)Nc1cccc(Cl)c1)c1ccccn1`, the % fluorescent cells increase is reported as 0% (inactive).
In the case of `COc1ccc(C)c(-n2c(=O)n(Cc3ccccc3)c(=O)c3[nH]cnc32)c1`, the % fluorescent cells increase is reported as 0.074% (inactive).
In the case of `Cc1ncsc1C(=O)Nc1cccc(C(F)(F)F)c1`, the % fluorescent cells increase is reported as 0.019% (inactive).
For `COc1ccc2c3c([nH]c2c1)[C@H](CO)N(C(=O)C1CCCC1)CC31CN(Cc2nccs2)C1`, the % fluorescent cells increase was 0.113% (inactive).
With `CC(NC(=O)c1ccccc1)C(=O)N/N=C/c1ccccc1` (stereo not given) the % fluorescent cells increase was 0% (inactive).
For `COc1ccc(N2C(=O)C3CCCN3C2c2cccc(OC)c2)cc1` (stereo not given), the % fluorescent cells increase was 0.021% (inactive).
In the case of `Cc1ccccc1OCC(O)CNC1CCC(NCC(O)COc2ccccc2C)CC1` (stereo not given), the % fluorescent cells increase is reported as 0% (inactive).
In the case of `Cc1cc(=O)[nH]c(N/N=C/c2cc(C)n(CC(F)(F)F)c2C)n1`, the % fluorescent cells increase is reported as 0% (inactive).
In the case of `Cn1c(NC(=O)c2ccc(F)cc2)c(-c2ccccn2)c(=O)c2ccccc21`, the % fluorescent cells increase is reported as 0.007% (inactive).
For `Cc1nc(NC(=O)C(Cl)Cl)sc1C(=O)N(C)C`, the % fluorescent cells increase was 0% (inactive).
With `COc1cc(/C=C/C(=O)c2ccc3c(c2)OCCO3)cc(Br)c1OCC(=O)N(C)C` the % fluorescent cells increase was 7.79% (inactive).
In the case of `COc1ccc(-n2ncc(Cl)c(Cl)c2=O)cc1`, the % fluorescent cells increase is reported as 0% (inactive).

Same assay, conditions: mTEFS fibroblasts autofluorescence, GFP-channel imaging, 3 days; at 21 µM (top of the series); cells pretreated with 5-aza-dC
For `Cc1ccc(-c2ccccc2[C@@H]2[C@H](C#N)N(S(C)(=O)=O)[C@H]2CO)cc1`, the % fluorescent cells increase was -0.036% (inactive).
